We go through four compounds from US10981932B2, “Macrocyclic indole derivatives” (Bayer Aktiengesellschaft, priority 2016, dated 2021).

The target of one data set is MCL-1 (Homo sapiens, UniProt Q07820). In words: Protein-protein interaction assay MCL-1/Noxa BH3 peptide (MCL-1 assay), TR-FRET. Conditions: MBP-MCL-1 / Noxa BH3-derived peptide, median. Format: binding. The method, boiled down: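 MBP-MCL-1 (1 nM final) was preincubated 10 min at 22 °C with compounds (11 concentrations, 0.1 nM–20 μM, duplicates) in Tris pH 7 buffer with NaCl, KF, Tween-20, DTT and BGG. After 1 h at 22 °C in the dark plus overnight at 4 °C, anti-MBP Eu-cryptate/streptavidin-XL665 TR-FRET was read; IC50 came from a 4-parameter fit.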

Data set [1] relates to SUDHL5. In words: Induction of cytotoxicity (CellTiter-Glo, 5 h), SUDHL5. Conditions: read-out: Cytotox SUDHL5 [M] (median); SUDHL5 cells, cytotoxicity induction, CellTiter-Glo, 5 h incubation, median.
In data set [2] the test system is SUDHL10. Nature of the data set: Induction of caspase-3/7 activity (Caspase-Glo 3/7), SUDHL10. In kind it is cell-based. Conditions: caspase-3/7 induction, SUDHL10 cells, 3 h treatment; median. The procedure, abridged:
(§1)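 Caspase-Glo 3/7 luminescence measured after 3 h compound exposure at 37 °C in SUDHL10 and SUDHL5 cells. EC50 values come from background-corrected signals, with curve bottom set to 1 and plateau set to maximal induction by the reference compound.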

A further data set has as its system A2780. Nature of the data set: Anti-proliferative effect (CellTiter-Glo, 72 h), A2780. Conditions: A2780 cells, median, read-out: IC50 antiproliferation assay A2780 [M] (median). Format: cell-based. The procedure, abridged: (§2)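 Anti-proliferative activity is derived from ATP-based luminescence (CellTiter-Glo) in cells exposed to compound for 72 h at 37 °C, set against a time zero plate read at seeding.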

The subject of data set [3] is SUDHL5. Nature of the data set: Anti-proliferative effect (CellTiter-Glo, 72 h), SUDHL5. Format: cell-based. Conditions: SUDHL5 cells, antiproliferation, 72 h incubation, median, read-out: Antiproli SUDHL5 [M] (median). The method, boiled down:
as §2

The test system of data set [4] is SUDHL10. In words: Induction of cytotoxicity (CellTiter-Glo, 5 h), SUDHL10. Conditions: read-out: Cytotox SUDHL10 [M] (median); SUDHL10 cells, cytotoxicity induction, CellTiter-Glo, 5 h incubation, median.
Data set [5] relates to SUDHL5. Nature of the data set: Induction of caspase-3/7 activity (Caspase-Glo 3/7), SUDHL5. Conditions: caspase-3/7 induction, SUDHL5 cells, 3 h treatment; median. In kind it is cell-based. The procedure, abridged:
as §1

In a further data set the test system is OPM2. Nature of the data set: Anti-proliferative effect (CellTiter-Glo, 72 h), OPM2. Format: cell-based. Conditions: OPM2 cells, median, read-out: IC50 antiproliferation assay OPM2 [M] (median). The method, boiled down: as §2
Data set [6] concerns SUDHL10. In words: Anti-proliferative effect (CellTiter-Glo, 72 h), SUDHL10. Format: cell-based. Conditions: SUDHL10 cells, antiproliferation, 72 h incubation, median, read-out: Antiproli SUDHL10 [M] (median). The method, boiled down:
as §2

“And” between values parts separate entries of the source, which are not always exact repeats. Identical values can stand only once. Counter-ions that a name gives are not always drawn. Like-named read-outs stand apart in the source and are kept apart here. Some results are limits rather than exact numbers.

MCL-1, sequence (Q07820 whole entry): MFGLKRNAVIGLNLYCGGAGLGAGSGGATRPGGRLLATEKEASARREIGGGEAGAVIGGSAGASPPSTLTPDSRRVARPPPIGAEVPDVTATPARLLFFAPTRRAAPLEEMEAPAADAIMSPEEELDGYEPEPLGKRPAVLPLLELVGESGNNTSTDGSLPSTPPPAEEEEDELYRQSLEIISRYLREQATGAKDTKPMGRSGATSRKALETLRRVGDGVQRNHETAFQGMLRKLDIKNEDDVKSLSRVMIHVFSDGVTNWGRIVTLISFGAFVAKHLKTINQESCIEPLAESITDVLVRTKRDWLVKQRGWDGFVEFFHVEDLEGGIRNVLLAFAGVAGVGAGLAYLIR

On to `CCOCc1nn(C)c2c1-c1cccc3c(CCCOc4cccc5c4CCCC5)c(C(=O)O)n(c13)CCCCOC2` (single isomer, unassigned; enantiomer 1) [Example 171, 3-(ethoxymethyl)-1-methyl-7-[3-(5,6,7,8-tetrahydronaphthalen-1-yloxy)propyl]-1,10,11,12,13,15-hexahydropyrazolo[4′,3′:9,10][1,6]oxazacycloundecino[8,7,6-hi]indole-8-carboxylic Acid (Enantiomer 1)], for which the IC50 against MCL-1 was 0.00268 µM; with SUDHL5 [1], 5.08e-06 M; in the data set with A2780 (Homo sapiens, A2780, 72 h), greater than 3.3e-05 M; in the data set on SUDHL5 [3] (Homo sapiens, SU-DHL-5, 72 h), 2.24e-06 M; with SUDHL10 [4], 1.39e-05 M; in the data set with OPM2 it was 1.23e-05 M. For the same compound, in the data set with SUDHL10 [6], the IC50 came to 6.45e-06 M. The EC50 in the data set on SUDHL10 [2] is 13.4 µM; in the data set with SUDHL5 [5], 6.48 µM.

`CN(C)S(=O)(=O)N1CCN(c2ccc(OCc3nn(C)c4c3-c3cccc5c(CCCOc6cccc7ccccc67)c(C(=O)O)n(c35)CCCCOC4)cc2)CC1` (single isomer, unassigned; enantiomer 2) [Example 1-20, 3-({4-[4-(dimethylsulfamoyl)piperazin-1-yl]phenoxy}methyl)-1-methyl-7-[3-(naphthalen-1-yloxy)propyl]-1,10,11,12,13,15-hexahydropyrazolo[4′,3′:9,10][1,6]oxazacycloundecino[8,7,6-hi]indole-8-carboxylic Acid (Enantiomer 2)]: the IC50 against MCL-1 was found to be 0.00285 µM; in the data set with SUDHL5 [1] it was 2.11e-06 M; in the data set with A2780 (Homo sapiens, A2780, 72 h), 1.38e-05 M; in the data set with SUDHL5 [3] it was 1.25e-06 M; in the data set with SUDHL10 [4], 3.06e-06 M; in the data set with OPM2 (Homo sapiens, OPM-2, 72 h), 2.32e-06 M. Besides, the IC50 with SUDHL10 [6] (Homo sapiens, SU-DHL10, 72 h) turned out to be 2.19e-06 M. Moreover, the EC50 in the data set on SUDHL10 [2] came out at 1.95 µM; with SUDHL5 [5], 1.63 µM.

With `Cn1nc(COc2ccc(N3CCN(C(=O)C4CC4)CC3)cc2)c2c1COCCCCn1c(C(=O)O)c(CCCOc3cccc4ccccc34)c3cccc-2c31` (single isomer, unassigned; enantiomer 2) [Example 1-23, 3-({4-[4-(cyclopropylcarbonyl)piperazin-1-yl)phenoxy]methyl}-1-methyl-7-[3-(naphthalen-1-yloxy)propyl]-1,10,11,12,13,15-hexahydropyrazolo[4′,3′:9,10][1,6]oxazacycloundecino[8,7,6-hi]indole-8-carboxylic acid (enantiomer 2)], the IC50 against MCL-1 was 0.0323 µM; in the data set with SUDHL5 [1], 2.45e-05 M; in the data set with A2780 it was 1.43e-05 M; with SUDHL5 [3], 1.15e-05 M; in the data set on SUDHL10 [4], greater than 3.3e-05 M; in the data set on OPM2, 1.7e-05 M. Further, in the data set with SUDHL10 [6], the IC50 was found to be 5.59e-06 M. Besides, the results for the EC50 in the data set on SUDHL10 [2] and with SUDHL5 [5] were 23 µM and 21.3 µM, respectively.

As for `Cc1nn(C)c2c1-c1cccc3c(CCCOc4cccc5ccccc45)c(C(=O)O)n(c13)CCCN(C)C2` (single isomer, unassigned; enantiomer 2) [Example 1-32, 7,9,11-trimethyl-1-[3-(naphthalen-1-yloxy)propyl]-4,5,6,7,8,9-hexahydropyrazolo[3′,4′:7,8][1,5]diazecino[9,10,1-hi]indole-2-carboxylic Acid-N-ethylethanamine Salt (Enantiomer 2)], the IC50 was 0.0492 µM at MCL-1; greater than 3.3e-05 M with SUDHL5 [1]; 1.82e-05 M in the data set on A2780; 1.63e-05 M in the data set on SUDHL5 [3]; 3.23e-05 M in the data set on SUDHL10 [4]; 2.76e-05 M in the data set with OPM2. Further, the IC50 with SUDHL10 [6] was 1.18e-05 M. Also, the EC50 is 22.9 µM and 20.4 µM and > 33 µM with SUDHL10 [2]; greater than 33 µM in the data set with SUDHL5 [5].
